The conditions of series [1]: after administration in vivo; via conversion into EM-FU and CNDP; cited from earlier work.
Series [2] can be described thus: Absorption test using beagle (oral administration, EM-FU concentration in plasma). The format is in vivo. To be noted: preparations corresponding to 100 mg BOF-A2 per beagle, all cases.

These results are taken from patent US5316773A, “Particulate preparation containing a flourracil derivative and hydroxypropylmethyl-cellulose” (Otsuka Pharmaceutical Co., Ltd., priority 1990, dated 1994).

Molecules are shown by their SMILES.

Regarding `CCOCn1cc(F)c(=O)n(C(=O)c2cccc(C(=O)Oc3nc(OC(=O)c4ccccc4)ccc3C#N)c2)c1=O` [BOF-A2, 3-[3-(6-Benzoyloxy-3-cyano-2-pyridyloxycarbonyl)benzoyl]-1-ethoxymethyl-5-fluorouracil], the anti-cancer activity result in series [1] is “continuous and strong anti-cancer activity”. In addition, the “non-changed compound (BOF-A2) in plasma” value in series [2] is recorded as “not detected”.
